What all share (type): functional, cell-based
The subject of one assay is HeLa. Briefly: Cytotoxicity against human HeLa cells assessed as reduction in cell viability incubated for 48 hrs by MTT assay. (In general: Tetrazolium assays rely on reduction of a dye to a coloured formazan, in cell work by metabolically active cells.)
Another assay deals with Huh-7. Put plainly: Cytotoxicity against human Huh-7 cells assessed as reduction in cell viability incubated for 48 hrs by MTT assay. To be noted: Huh-7, 48 h.
The next assay has as its system A549. Briefly: Cytotoxicity against human A549 cells assessed as reduction in cell viability incubated for 48 hrs by MTT assay. The settings on record: A549, 48 h.
Another assay relates to MDA-MB-231. Briefly: Cytotoxicity against human MDA-MB-231 cells assessed as reduction in cell viability incubated for 48 hrs by MTT assay. The settings on record: MDA-MB-231, 48 h.
The test system of another assay is SK-OV-3. Put plainly: Cytotoxicity against human SK-OV-3 cells assessed as reduction in cell viability incubated for 48 hrs by MTT assay. The settings on record: SK-OV-3, 48 h.
Another assay deals with HCT-116. Put plainly: Cytotoxicity against human HCT-116 cells assessed as reduction in cell viability incubated for 48 hrs by MTT assay. The settings on record: HCT-116, 48 h.

Bounds are passed on as bounds.

For orientation: IC50 means the concentration that gives 50% inhibition. Take `C=C1[C@H](O)C[C@@H]2[C@@](C)(CO)CCC[C@@]2(C)[C@@H]1C/C=C(\C)C=O`: the IC50 in the assay with HeLa was > 10 µM; with Huh-7 it was > 10 µM; in the assay with A549 it was > 10 µM; with MDA-MB-231, 1.5 µM; in the assay on SK-OV-3, > 10 µM; in the assay on HCT-116 it was > 10 µM.

For the compound `C=C1C(=O)[C@]23CC[C@H]4[C@@](C)(CC[C@@H](O)[C@@]45CO5)[C@@H]2CC[C@H]1C3`, the IC50 in the assay with HeLa came out at 5.1 µM; in the assay on Huh-7, 4.1 µM; in the assay with A549, 9.8 µM; in the assay with MDA-MB-231 it was 6.8 µM; in the assay on SK-OV-3, 2.9 µM; with HCT-116, 1.9 µM.

As to `C=C1[C@H](O)C[C@@H]2[C@@](C)(CO)CCC[C@@]2(C)[C@@H]1C[C@H]1OC(=O)C=C1C`, the IC50 in the assay with HeLa was > 10 µM; in the assay with Huh-7, > 10 µM; with A549, > 10 µM; with MDA-MB-231, 1.6 µM; with SK-OV-3 it was > 10 µM; in the assay with HCT-116, > 10 µM.

For `C=C1C(=O)[C@]23CC[C@@H]4[C@@](C)(CO)CCC[C@@]4(C)[C@@H]2CC[C@H]1C3`, the IC50 in the assay with HeLa was > 10 µM; with Huh-7 it was 9.7 µM; in the assay on A549, 8.1 µM; in the assay on MDA-MB-231, 10 µM; in the assay on SK-OV-3 it was 6.9 µM; in the assay with HCT-116, 2.9 µM.

For the compound `CC(C)c1cc2c(cc1O)[C@@]1(C)CC[C@H](O)C(C)(C)[C@@H]1CC2=O`, the IC50 was > 10 µM in the assay with HeLa; > 10 µM in the assay with Huh-7; > 10 µM in the assay with A549; 1.6 µM in the assay with MDA-MB-231; > 10 µM in the assay on SK-OV-3; > 10 µM in the assay with HCT-116.

With `C=C1C[C@@]23C[C@@H]1CC[C@H]2[C@]1(C)CCC[C@@](C)(C(=O)O)[C@H]1[C@@H](O)[C@@H]3O`, the 50% inhibitory concentration (IC50) in the assay on HeLa, in the assay on Huh-7, in the assay with A549, with MDA-MB-231, with SK-OV-3 and with HCT-116 was > 10 µM throughout.

Consider `C=C1[C@H](O)C[C@@H]2[C@@](C)(CO)CCC[C@@]2(C)[C@@H]1/C=C/C(C)=O`, for which the IC50 in the assay with HeLa is > 10 µM; with Huh-7, > 10 µM; in the assay with A549, > 10 µM; with MDA-MB-231, 3 µM; in the assay with SK-OV-3, > 10 µM; in the assay on HCT-116 it was > 10 µM.

In the case of `CC(=O)O[C@H]1C(=O)[C@@]2(C)[C@H]([C@H](OC(=O)c3ccccc3)[C@]3(O)C[C@H](OC(=O)[C@H](O)[C@@H](NC(=O)c4ccccc4)c4ccccc4)C(C)=C1C3(C)C)[C@]1(OC(C)=O)CO[C@@H]1C[C@@H]2O` [PACLITAXEL], the IC50 turned out to be 0.004 µM in the assay on HeLa and 0.005 µM in the assay with Huh-7.

For the origin of these results see ChEMBL document CHEMBL4665693, “Amentotaxins C-V, Structurally Diverse Diterpenoids from the Leaves and Twigs of the Vulnerable Conifer Amentotaxus argotaenia and Their Cytotoxic Effects” (J Nat Prod, 2020).
